The target in assay [1] is T1, AuroraB (Homo sapiens, UniProt Q96GD4).
T1 construct: 20 μL of AuroraB FL H is for a final volume of 41 μL; His
Description: AuroraB Homogeneous Time Resolved Fluorescent (HTRF) kinase assay. The format is biochemical. The conditions noted are these: average; read-out: AurB_IC50_IP (uM Avg). The method in brief: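 Full-length His-tagged kinase phosphorylates biotinylated Histone H3 (0.1 μM final) with ATP in pH 7.5 HEPES containing MgCl, MnCl, DTT and BSA for about 90 min. EDTA-containing detection mix with SA-APC and Eu-anti-phosphoHistone H3 then equilibrated about 60 min; HTRF read with 320 nm excitation, emissions 615/655 nm.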

Assay [2] concerns the target T2, AuroraA-TPX2 (Homo sapiens, UniProt O14965).
T2 construct: 20 μL of AuroraA-TPX2 KD GST for a final volume of about 41 μL; GST
T2 sequence (O14965 133-383 limits assumed): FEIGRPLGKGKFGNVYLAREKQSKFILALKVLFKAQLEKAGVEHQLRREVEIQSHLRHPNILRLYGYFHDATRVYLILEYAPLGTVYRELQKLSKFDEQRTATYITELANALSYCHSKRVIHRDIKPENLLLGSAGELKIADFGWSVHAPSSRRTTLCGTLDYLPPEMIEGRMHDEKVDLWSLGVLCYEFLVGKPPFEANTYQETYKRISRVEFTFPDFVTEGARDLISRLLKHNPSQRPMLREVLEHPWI
T2 sequence (Q9ULW0 1-43 partner limits assumed): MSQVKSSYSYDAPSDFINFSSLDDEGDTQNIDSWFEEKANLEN
The assay is described as follows: AuroraA-TPX2 Homogeneous Time Resolved Fluorescent (HTRF) kinase assay. The note with it: average; read-out: AurA_IC50_IP (uM Avg). In kind it is biochemical. The method in brief:
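HTRF read-out (Eu 615 nm to APC 655 nm) of phosphorylated biotin-PLK, detected with 0.02 nM europium anti-phosphoPLK antibody and 0.0005 mg/mL SA-APC after overnight equilibration.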
On the technique in general: In TR-FRET formats the signal depends on donor and acceptor labels being close together.

T1 sequence (Q96GD4 whole entry): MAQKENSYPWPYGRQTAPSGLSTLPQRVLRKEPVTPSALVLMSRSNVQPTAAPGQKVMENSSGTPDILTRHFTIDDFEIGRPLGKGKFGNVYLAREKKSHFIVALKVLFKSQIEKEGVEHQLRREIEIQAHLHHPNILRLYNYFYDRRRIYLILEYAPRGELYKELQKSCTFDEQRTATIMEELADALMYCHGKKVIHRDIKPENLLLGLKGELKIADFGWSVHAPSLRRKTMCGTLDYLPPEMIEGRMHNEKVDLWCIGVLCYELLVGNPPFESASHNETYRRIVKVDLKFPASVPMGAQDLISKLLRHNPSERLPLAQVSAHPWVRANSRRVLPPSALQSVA

With `COc1cnc2c(Oc3ccc(Nc4nnc(-c5ccc(C)s5)c5ccccc45)cc3)ccnc2c1` [compound 138, N-(4-((7-(methyloxy)-1,5-naphthyridin-4-yl)oxy)phenyl)-4-(5-methyl-2-thienyl)-1-phthalazinamine], the figures for the IC50 in assay [1] and in assay [2] were 0.013 µM and 0.018 µM, respectively.
Consider `COc1cccc(-c2nnc(Nc3ccc(Oc4ccnc5cc(OC)cnc45)cc3)c3ccccc23)c1` [compound 139, N-(4-((7-(methyloxy)-1,5-naphthyridin-4-yl)oxy)phenyl)-4-(3-(methyloxy)phenyl)-1-phthalazinamine], for which the IC50 in assay [1] was 0.006 µM; in assay [2] it was 0.018 µM.
Take `COc1cnc2c(Oc3ccc(Nc4nnc(-c5ccc(Cl)s5)c5ccccc45)cc3)ccnc2c1` [compound 140, 4-(5-chloro-2-thienyl)-N-(4-((7-(methyloxy)-1,5-naphthyridin-4-yl)oxy)phenyl)-1-phthalazinamine]: the IC50 worked out at 0.008 µM in assay [1] and 0.022 µM in assay [2].
`COc1ccc(-c2nnc(Nc3ccc(Oc4ccnc5cc(C#N)ccc45)cc3)c3ccccc23)cc1` [compound 141, 4-((4-((4-(4-(methyloxy)phenyl)-1-phthalazinyl)amino)phenyl)oxy)-7-quinolinecarbonitrile]: the results for the IC50 in assay [1] and in assay [2] were 0.004 µM and 0.019 µM, respectively.
On to `COc1cnc2c(Oc3ccc(Nc4nnc(-c5ccc6sccc6c5)c5ccccc45)cc3)ccnc2c1` [compound 142, 4-(1-benzothien-5-yl)-N-(4-((7-(methyloxy)-1,5-naphthyridin-4-yl)oxy)phenyl)-1-phthalazinamine], for which the values for the IC50 in assay [1] and in assay [2] were 0.007 µM and 0.008 µM, respectively.
For `COc1cnc2c(Oc3ccc(Nc4nnc(-c5cc6ccccc6n5C)c5ccccc45)cc3)ccnc2c1` [compound 143, 4-(1-methyl-1H-indol-2-yl)-N-(4-((7-(methyloxy)-1,5-naphthyridin-4-yl)oxy)phenyl)-1-phthalazinamine], in that order: 0.009 µM and 0.012 µM.
Consider `COc1cnc2c(Oc3ccc(Nc4ncc(-c5ccccc5)c5ccccc45)cc3)ccnc2c1` [compound 144, N-(4-((7-(methyloxy)-1,5-naphthyridin-4-yl)oxy)phenyl)-4-phenyl-1-isoquinolinamine], for which the IC50 was determined as 0.02 µM in assay [1] and 0.061 µM in assay [2].
For the molecule `COc1cc2nccc(Oc3ccc(Nc4ncc(-c5ccccc5)c5ccccc45)cc3)c2cn1` [compound 145, N-(4-((7-(methyloxy)-1,6-naphthyridin-4-yl)oxy)phenyl)-4-phenyl-1-isoquinolinamine], the IC50 worked out at 0.096 µM in assay [1] and 0.326 µM in assay [2].
For the molecule `COc1cnc2c(Oc3ccc(Nc4nnc(-c5ccc(C(F)(F)F)cc5)c5ccccc45)cc3)ccnc2c1` [compound 146, N-(4-((7-(methyloxy)-1,5-naphthyridin-4-yl)oxy)phenyl)-4-(4-(trifluoromethyl)phenyl)-1-phthalazinamine], the IC50 in assay [1] turned out to be 0.008 µM; in assay [2] it was 0.026 µM.
Taken in the same sequence, the figures for `N#Cc1ccc2c(Oc3ccc(Nc4nnc(-c5ccc(C(F)(F)F)cc5)c5ccccc45)cc3)ccnc2c1` [compound 147, 4-((4-((4-(4-(trifluoromethyl)phenyl)-1-phthalazinyl)amino)phenyl)oxy)-7-quinolinecarbonitrile] were 0.011 µM and 0.025 µM.
For `CCc1cc(-c2ccccc2)nnc1Nc1ccc(Oc2ncnc3cc(OC)c(OC)cc23)cc1` [compound 148, N-(4-((6,7-bis(methyloxy)-4-quinazolinyl)oxy)phenyl)-4-ethyl-6-phenyl-3-pyridazinamine], in that order: 0.016 µM and 0.062 µM.
As to `CCc1cc(-c2ccccc2)nnc1Nc1ccc(Oc2ccnc3cc(C#N)ccc23)cc1` [compound 149, 4-((4-((4-ethyl-6-phenyl-3-pyridazinyl)amino)phenyl)oxy)-7-quinolinecarbonitrile], the IC50 in assay [1] is 0.014 µM; in assay [2], 0.146 µM.
Taken in the same sequence, the figures for `COc1cc2nccc(Oc3ccc(Nc4nnc(-c5cccc(C)n5)c5ccccc45)cc3)c2cc1OC` [compound 150, N-(4-((6,7-bis(methyloxy)-4-quinolinyl)oxy)phenyl)-4-(6-methyl-2-pyridinyl)-1-phthalazinamine] were 0.007 µM and 0.014 µM.
Take `COc1cnc2c(Oc3ccc(Nc4nnc(N5CCCCC5)c5ccccc45)cc3)ccnc2c1` [compound 151, N-(4-((7-(methyloxy)-1,5-naphthyridin-4-yl)oxy)phenyl)-4-(1-piperidinyl)-1-phthalazinamine]: the figures for the IC50 in assay [1] and in assay [2] were 0.005 µM and 0.022 µM, respectively.
Taken in the same sequence, the figures for `COc1cnc2c(Oc3ccc(Nc4nnc(-c5cc(C)cs5)c5ccccc45)cc3)ccnc2c1` [compound 152, N-(4-((7-(methyloxy)-1,5-naphthyridin-4-yl)oxy)phenyl)-4-(4-methyl-2-thienyl)-1-phthalazinamine] were 0.006 µM and 0.006 µM.
Taken in the same sequence, the figures for `COc1cc2ncnc(Oc3ccc(Nc4nnc(-c5cc(C)cs5)c5ccccc45)cc3)c2cc1OC` [compound 153, N-(4-((6,7-bis(methyloxy)-4-quinazolinyl)oxy)phenyl)-4-(4-methyl-2-thienyl)-1-phthalazinamine] were 0.012 µM and 0.009 µM.
In the case of `COc1cnc2c(Oc3ccc(Nc4nnc(-c5ccc(Cl)c(C#N)c5)c5ccccc45)cc3)ccnc2c1` [compound 154, 2-chloro-5-(4-((4-((7-(methyloxy)-1,5-naphthyridin-4-yl)oxy)phenyl)amino)-1-phthalazinyl)benzonitrile], the IC50 in assay [1] stood at 0.004 µM; in assay [2], 0.018 µM.
Regarding `COc1cnc2c(Oc3ccc(Nc4nnc(-c5ccc(C(C)C)cc5)c5ccccc45)cc3)ccnc2c1` [compound 155, 4-(4-(1-methylethyl)phenyl)-N-(4-((7-(methyloxy)-1,5-naphthyridin-4-yl)oxy)phenyl)-1-phthalazinamine], the IC50 in assay [1] came out at 0.011 µM; in assay [2], 0.029 µM.
For `CCCc1cc(-c2ccccc2)nnc1Nc1ccc(Oc2ccnc3cc(OC)cnc23)cc1` [compound 156, N-(4-((7-(methyloxy)-1,5-naphthyridin-4-yl)oxy)phenyl)-6-phenyl-4-propyl-3-pyridazinamine], in that order: 0.005 µM and 0.047 µM.
For `COc1cnc2c(Oc3ccc(Nc4nnc(-c5ccc6c(c5)OCCN6C)c5ccccc45)cc3)ccnc2c1` [compound 157, 4-(4-methyl-3,4-dihydro-2H-1,4-benzoxazin-7-yl)-N-(4-((7-(methyloxy)-1,5-naphthyridin-4-yl)oxy)phenyl)-1-phthalazinamine], the IC50 stood at 0.005 µM in assay [1] and 0.012 µM in assay [2].
Turning to `COc1cnc2c(Oc3ccc(Nc4nnc(-c5ccc(OC)nc5)c5ccccc45)cc3)ccnc2c1` [compound 158, N-(4-((7-(methyloxy)-1,5-naphthyridin-4-yl)oxy)phenyl)-4-(6-(methyloxy)-3-pyridinyl)-1-phthalazinamine], the IC50 in assay [1] was found to be 0.005 µM; in assay [2], 0.037 µM.
As for `COc1cnc2c(Oc3ccc(Nc4nnc(-c5ccc6occc6c5)c5ccccc45)cc3)ccnc2c1` [compound 159, 4-(1-benzofuran-5-yl)-N-(4-((7-(methyloxy)-1,5-naphthyridin-4-yl)oxy)phenyl)-1-phthalazinamine], the IC50 amounted to 0.007 µM in assay [1] and 0.01 µM in assay [2].
For `Cc1ccc(-c2nnc(Nc3ccc(Oc4ccnc5ccccc45)c(F)c3)c3ccccc23)cc1` [compound 161, N-(3-fluoro-4-(4-quinolinyloxy)phenyl)-4-(4-methylphenyl)-1-phthalazinamine], the IC50 in assay [1] is 0.005 µM; in assay [2], 0.027 µM.
Consider `Cc1ccc(-c2nnc(Nc3ccc(Oc4ccnc5cc(C#N)ccc45)cc3)c3ccccc23)s1` [compound 162, 4-((4-((4-(5-methyl-2-thienyl)-1-phthalazinyl)amino)phenyl)oxy)-7-quinolinecarbonitrile], for which the values for the IC50 in assay [1] and in assay [2] were 0.004 µM and 0.012 µM, respectively.
With `COc1cnc2c(Oc3ccc(Nc4nnc(-c5ccc(OC(F)(F)F)cc5)c5ccccc45)cc3)ccnc2c1` [compound 163, N-(4-((7-(methyloxy)-1,5-naphthyridin-4-yl)oxy)phenyl)-4-(4-((trifluoromethyl)oxy)phenyl)-1-phthalazinamine], the IC50 in assay [1] came to 0.009 µM; in assay [2] it was 0.072 µM.
Taken in the same sequence, the figures for `COc1ccc2c(Oc3ccc(Nc4nnc(-c5ccccc5)c5ccccc45)cc3)c(F)cnc2c1` [compound 164, N-(4-((3-fluoro-7-(methyloxy)-4-quinolinyl)oxy)phenyl)-4-phenyl-1-phthalazinamine] were 0.003 µM and 0.04 µM.
For `COc1cnc2c(Oc3ccc(Nc4nnc(-c5ccc6c(c5)OCCO6)c5ccccc45)cc3)ccnc2c1` [compound 166, 4-(2,3-dihydro-1,4-benzodioxin-6-yl)-N-(4-((7-(methyloxy)-1,5-naphthyridin-4-yl)oxy)phenyl)-1-phthalazinamine], the figures for the IC50 in assay [1] and in assay [2] were 0.006 µM and 0.023 µM, respectively.

For the origin of these results see patent US8557816B2, “Aurora kinase modulators and method of use” (Amgen Inc., priority 2007, dated 2013).
